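Grown in 96-well plates, cells were treated for 48 hours with each compound at five concentrations. Insufficient inhibition: endpoint recorded as highest concentration tested. GI50: concentration for 50% inhibition of growth. The concentration for full growth arrest is given as TGI.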

Among the test systems are NCI-H23 lung; SN12C renal; ACHN renal; SNB-19 CNS; SF-295 CNS; EKVX NSCLC; NCI-H226 lung; IGROV1 ovarian; 786-0 renal; A549 NSCLC.
Assay in all cases: growth of human tumour cells (NCI), 48 h

For the compound `Cc1cn2c(/C=N/N=C(N)N)c(-c3ccncc3)nc2s1`, the GI50 in the test with NCI-H23 lung was 16.6 µM; in the test with SN12C renal, 32.7 µM; with ACHN renal it was 18.5 µM; with SNB-19 CNS, 16.4 µM; in the test on SF-295 CNS, 14.3 µM; in the test with EKVX NSCLC, 12.5 µM. In addition, the GI50 with NCI-H226 lung is 21.8 µM; with IGROV1 ovarian, 22.1 µM; with 786-0 renal it was 15.8 µM; in the test on A549 NSCLC it was 17.6 µM. The TGI in the test with NCI-H23 lung was determined as 30.2 µM; in the test with SN12C renal, 69.7 µM; in the test on ACHN renal, 32.5 µM; in the test on SNB-19 CNS it was 31.3 µM; in the test with SF-295 CNS it was 29.2 µM; with EKVX NSCLC, 26.8 µM. For the same compound, the TGI in the test on NCI-H226 lung came to 40.5 µM; in the test on IGROV1 ovarian, 49.2 µM; in the test with 786-0 renal, 29.3 µM; in the test on A549 NSCLC, 32.1 µM.

Take `COc1cccc2nc3c(C(=O)NCCN(C)C)cccc3nc12`: the TGI with NCI-H23 lung is 27.2 µM; in the test with SN12C renal, greater than 72.3 µM; in the test with ACHN renal, greater than 100 µM; with SNB-19 CNS, greater than 91.8 µM; with SF-295 CNS, 36.8 µM; in the test on EKVX NSCLC it was 40.5 µM. For the same compound, the TGI is 20.2 µM in the test with NCI-H226 lung, greater than 72.9 µM in the test with IGROV1 ovarian, greater than 84.6 µM with 786-0 renal and greater than 100 µM in the test on A549 NSCLC.

`COc1cc2c(c(OC)c1OC)-c1ccc(SC)c(=O)cc1C(CC(=O)Oc1cccc(F)c1)C2` (stereo not given): the TGI is 0.805 µM in the test with NCI-H23 lung; 16.6 µM in the test on SN12C renal; greater than 100 µM in the test on ACHN renal; greater than 100 µM in the test with SNB-19 CNS; greater than 100 µM in the test with SF-295 CNS; greater than 100 µM in the test with EKVX NSCLC. For the same compound, the TGI was 0.794 µM in the test on NCI-H226 lung, greater than 100 µM in the test with IGROV1 ovarian, greater than 100 µM with 786-0 renal and greater than 100 µM with A549 NSCLC.

Regarding `COC(=O)N/N=C(\C)C(CN(C)C)C(c1ccccc1)c1c(O)c2ccccc2oc1=O` (stereo not given), the TGI with NCI-H23 lung, with SN12C renal, in the test with ACHN renal, in the test with SNB-19 CNS, in the test on SF-295 CNS and in the test with EKVX NSCLC was greater than 100 µM each time. Also, the TGI in the test with NCI-H226 lung, in the test with IGROV1 ovarian, in the test on 786-0 renal and with A549 NSCLC was greater than 100 µM each time.

Regarding `COc1cc(-c2nccc3cc4c(cc23)OCO4)cc(OC)c1OC`, the GI50 with NCI-H23 lung is 4.73 µM; with SN12C renal it was 7.64 µM; with ACHN renal, 9.92 µM; in the test with SNB-19 CNS it was 7.34 µM; with SF-295 CNS it was 2.03 µM; with EKVX NSCLC, 7.1 µM. The GI50 in the test on NCI-H226 lung is 16.4 µM; with IGROV1 ovarian it was 8.92 µM; in the test with 786-0 renal it was 7.65 µM; in the test with A549 NSCLC, 7.37 µM. In addition, the TGI is greater than 100 µM in the test on NCI-H23 lung; greater than 100 µM in the test with SN12C renal; greater than 100 µM in the test with ACHN renal; greater than 100 µM with SNB-19 CNS; 14.2 µM in the test on SF-295 CNS; greater than 100 µM in the test on EKVX NSCLC. The TGI in the test with NCI-H226 lung, in the test on IGROV1 ovarian, in the test with 786-0 renal and in the test on A549 NSCLC was greater than 100 µM throughout.

On to `C/C(=N\NC(N)=S)c1sc(-n2nc(-c3ccccc3)cc2-c2ccccc2)nc1C`, for which the TGI with NCI-H23 lung, in the test with SN12C renal, in the test with ACHN renal, with SNB-19 CNS, with SF-295 CNS and in the test on EKVX NSCLC was greater than 100 µM each time. The TGI in the test on NCI-H226 lung, with IGROV1 ovarian, in the test with 786-0 renal and in the test with A549 NSCLC was greater than 100 µM each time.

With `COc1cc(NC(C)CCCNC(C)C)c2ncccc2c1OC` (stereo not given), the GI50 in the test with NCI-H23 lung is greater than 100 µM; in the test on SN12C renal it was greater than 100 µM; in the test on ACHN renal, greater than 100 µM; with SNB-19 CNS it was greater than 100 µM; in the test with SF-295 CNS it was greater than 100 µM; with EKVX NSCLC, 36.4 µM. For the same compound, the GI50 with NCI-H226 lung is greater than 100 µM; with IGROV1 ovarian it was 13.4 µM; in the test on 786-0 renal it was greater than 100 µM; with A549 NSCLC, greater than 100 µM. Also, the TGI in the test with NCI-H23 lung, with SN12C renal, with ACHN renal, in the test with SNB-19 CNS, in the test on SF-295 CNS and with EKVX NSCLC was greater than 100 µM throughout. Moreover, the TGI was greater than 100 µM with NCI-H226 lung, 44.3 µM with IGROV1 ovarian, greater than 100 µM with 786-0 renal and greater than 100 µM in the test with A549 NSCLC.

As to `CC(=O)O[C@H](C[C@H](C(C)C)N(C)C(=O)[C@@H](NC(=O)[C@H]1CCCCN1C)C(C)C)c1cccc(C(=O)N[C@@H](Cc2ccccc2)C[C@H](C)C(=O)O)n1`, the GI50 with NCI-H23 lung is 0.051 µM; in the test with SN12C renal it was 0.044 µM; in the test on ACHN renal, 0.0955 µM; with SNB-19 CNS, 0.0343 µM; with SF-295 CNS, 0.0333 µM; in the test on EKVX NSCLC, 0.255 µM. In addition, the GI50 was 0.067 µM with NCI-H226 lung, 0.0287 µM in the test on IGROV1 ovarian, 0.0463 µM with 786-0 renal and 0.0666 µM in the test on A549 NSCLC. Besides, the TGI in the test with NCI-H23 lung is greater than 25 µM; in the test on SN12C renal it was greater than 25 µM; with ACHN renal it was greater than 25 µM; in the test with SNB-19 CNS it was greater than 25 µM; in the test on SF-295 CNS, greater than 5.29 µM; in the test on EKVX NSCLC, greater than 25 µM. In addition, the TGI with NCI-H226 lung is 5.36 µM; in the test with IGROV1 ovarian, greater than 25 µM; with 786-0 renal it was greater than 25 µM; in the test on A549 NSCLC, greater than 25 µM.

Take `CCC(C)(O)c1cn(-c2ccc(S(=O)(=O)O)cc2)nn1` (stereo not given): the TGI with NCI-H23 lung, in the test on SN12C renal, in the test with ACHN renal, with SNB-19 CNS, in the test on SF-295 CNS and in the test with EKVX NSCLC was greater than 100 µM each time. Also, the TGI with NCI-H226 lung, in the test on IGROV1 ovarian, in the test on 786-0 renal and with A549 NSCLC was greater than 100 µM throughout.

Source of the values: PubChem BioAssay (NCI).
